Patent publication US8362008B2 (The University Of Edinburgh, priority 2007, dated 2013)
Structures can show the parent of a compound that is named as a salt.

Target: T1, human 11β-HSD1 enzyme (Homo sapiens, UniProt P28845)
T1 construct: stably transfected with a construct containing the full-length gene coding for the human 11β-HSD1 enzyme; expressed in transfected cells; host or cells: HEK293 (HEK293/11β-HSD1 cells)
Assay: Cellular in vitro 11β-HSD1 enzyme inhibition assay (SPA, HEK293/11β-HSD1 cells)
Assay type: cell-based
Conditions: HEK293, less than or equal to 1000 nM (1 μM)
Protocol: Cellular In Vitro 11β-HSD1 Enzyme Inhibition Assay
Compounds were assessed by a Scintillation Proximity Assay (SPA) performed according to the following protocol:
HEK293 cells were stably transfected with a construct containing the full-length gene coding for the human 11β-HSD1 enzyme to create HEK293/11β-HSD1 cells. Cells were routinely cultured in DMEM containing 10% calf foetal serum, 1% glutamine, and 1% penicillin and streptomycin. Prior to assay, cells were plated at 2×10^4 cells/well in 96-well poly-D-Lys coated flat-bottomed microplates and incubated in 5% CO2, 95% O2 at 37° C. for 24 hours. The media in each well was removed immediately before assay.
Compounds to be tested were dissolved in DMSO at 10 mM and serially diluted into water containing 10% DMSO. Diluted compounds at a volume of 10 μL were added to wells of a 96-well V-bottomed microplate. […] This solution (100 μL/well) was transferred to the plate containing the cells. The plate was then incubated in 5% CO2, 95% O2 at 37° C. for 2 hours.
Following this incubation, 50 μL of the assay solution was transferred to each well of a 96-well scintillation microplate. A mixture consisting of anti-mouse YSi SPA beads, pre-mixed with anti-cortisol antibody in assay buffer (50 mM Tris.HCl, pH 7.0; 300 mM NaCl; 1 mM EDTA, 5% glycerol) was prepared and 50 μL added to each well of the scintillation microplate. An adhesive strip was applied to the microplate and the plate gently shaken for at least 2 hours at room temperature, and then spun briefly on a low speed centrifuge. The plate was read on a scintillation counter suitable for 96-well microplates. For the calculation of percentage inhibition, a series of wells were added to the plate that represented the assay maximum and the assay minimum: one set that contained substrate without cells (mimimum) and another set that contained substrate and cells without any compound (maximum).
The calculation of median inhibitory concentration (IC50) values for the compounds was performed using GraphPad Prism® software. Dose-response curves for each compound were plotted as fractional inhibition and data fitted to the four parameter logistic equation.

T1 sequence (P28845 whole entry): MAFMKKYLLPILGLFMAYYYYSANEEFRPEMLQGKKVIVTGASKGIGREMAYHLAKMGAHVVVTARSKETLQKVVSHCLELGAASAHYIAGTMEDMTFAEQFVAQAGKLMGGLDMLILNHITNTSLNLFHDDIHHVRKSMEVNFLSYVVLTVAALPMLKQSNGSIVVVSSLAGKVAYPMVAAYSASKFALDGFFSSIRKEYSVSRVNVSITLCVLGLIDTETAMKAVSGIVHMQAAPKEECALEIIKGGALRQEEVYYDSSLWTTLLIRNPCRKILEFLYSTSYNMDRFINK

Row | Structure (SMILES) | IC50 [µM]
1 | CC(=O)N1CCC(c2cc(C(=O)N3CCCC(C)(C)CC3)cs2)CC1 | ≤ 1
2 | CC(=O)N1CCC(c2cc(C(=O)N3CCCC4CCCCC43)cs2)CC1 (stereo not shown) | ≤ 1
3 | O=C(c1csc(C2CCOCC2)c1)N1CCC[C@@H]2CCCC[C@@H]21 (racemic) [CC-027, cis-(octahydro-quinolin-1-yl)-[5-(tetrahydro-pyran-4-yl)-thiophen-3-yl]-methanone] | ≤ 1
4 | O=C(c1csc(C2CCS(=O)(=O)CC2)c1)N1CCC[C@@H]2CCCC[C@@H]21 (racemic) [CC-138, cis-[5-(1,1-Dioxo-hexahydro-thiopyran-4-yl)-thiophen-3-yl]-(octahydro-quinolin-1-yl)methanone] | ≤ 1
5 | O=C(NCCO)N1CCC(c2cc(C(=O)N3CCC[C@@H]4CCCC[C@@H]43)cs2)CC1 (racemic) [CC-157, cis-4-[4-(Octahydro-quinoline-1-carbonyl)-thiophen-2-yl]-piperidine-1-carboxylic acid(2-hydroxy-ethyl)-amide] | ≤ 1
6 | O=C(c1csc(CC(F)(F)F)c1)N1CCC[C@@H]2CCCC[C@@H]21 (relative stereo) [AA-012, cis-(Octahydro-quinolin-1-yl)-[5-(2,2,2-trifluoro-ethyl)-thiophen-3-yl]-methanone] | ≤ 1
7 | N#CCc1cc(C(=O)N2CCC[C@@H]3CCCC[C@@H]32)cs1 (relative stereo) [AA-022, cis-[4-(Octahydro-quinoline-1-carbonyl)-thiophen-2-yl]-acetonitrile] | ≤ 1
8 | CC(=O)N1CCC(c2cc(C(=O)N3CCC[C@@H]4CCCC[C@@H]43)cs2)CC1 (relative stereo) [CC-035, cis-1-{4-[4-(Octahydro-quinoline-1-carbonyl)-thiophen-2-yl]-piperidin-1-yl}-ethanone] | ≤ 1
9 | O=C(c1csc(C2=CCNCC2)c1)N1CCC[C@@H]2CCCC[C@@H]21 (relative stereo) [CC-046, cis-(octahydro-quinolin-1-yl)-[5-(1,2,3,6-tetrahydro-pyridin-4-yl)-thiophen-3-yl]-methanone] | ≤ 1
10 | O=C(CO)N1CCC(c2cc(C(=O)N3CCC[C@@H]4CCCC[C@@H]43)cs2)CC1 (relative stereo) [CC-053, cis-2-Hydroxy-1-{4-[4-(octahydro-quinoline-1-carbonyl)-thiophen-2-yl]-piperidin-1-yl}-ethanone] | ≤ 1
11 | CS(=O)(=O)N1CCC(c2cc(C(=O)N3CCC[C@@H]4CCCC[C@@H]43)cs2)CC1 (relative stereo) [CC-065, cis-[5-(1-Methanesulfonyl-piperidin-4-yl)-thiophen-3-yl]-(octahydro-quinolin-1-yl)-methanone] | ≤ 1
12 | COC(=O)N1CCC(c2cc(C(=O)N3CCC[C@@H]4CCCC[C@@H]43)cs2)CC1 (relative stereo) [CC-066, cis-4-[4-(Octahydro-quinoline-1-carbonyl)-thiophen-2-yl]-piperidine-1-carboxylic acid methyl ester] | ≤ 1
13 | NC(=O)N1CCC(c2cc(C(=O)N3CCC[C@@H]4CCCC[C@@H]43)cs2)CC1 (relative stereo) [CC-068, cis-4-[4-(Octahydro-quinoline-1-carbonyl)-thiophen-2-yl]-piperidine-1-carboxylic acid amide] | ≤ 1
14 | N#CC1(c2cc(C(=O)N3CCC[C@@H]4CCCC[C@@H]43)cs2)CCOCC1 (relative stereo) [CC-127, cis-4-[4-(Octahydro-quinoline-1-carbonyl)-thiophen-2-yl]-tetrahydro-pyran-4-carbonitrile] | ≤ 1
15 | CC(C)(C(N)=O)N1CCC(c2cc(C(=O)N3CCC[C@@H]4CCCC[C@@H]43)cs2)CC1 (relative stereo) [CC-158, cis-2-{4-[4-(Octahydro-quinoline-1-carbonyl)-thiophen-2-yl]-piperidin-1-yl}-isobutyramide] | ≤ 1
16 | O=C(c1csc(C2CCNC2)c1)N1CCC[C@@H]2CCCC[C@@H]21 (relative stereo) [CC-177, cis-(Octahydro-quinolin-1-yl)-(5-pyrrolidin-3-yl-thiophen-3-yl)-methanone] | ≤ 1
17 | O=C(c1csc(C2CCNCC2)c1)N1CCCC2CCCCC21 (single isomer, unassigned) [CC-044, trans-(Octahydro-quinolin-1-yl)-(5-piperidin-4-yl-thiophen-3-yl)-methanone] | ≤ 1

Same assay, conditions: HEK293, more than 1000 nM (1.0 μM) and less than or equal to 30 μM

Row | Structure (SMILES) | IC50 [µM]
18 | O=C(c1csc(C2CCOCC2)c1)N1CCCC(F)(F)CC1 | 1 to 30
19 | O=C(c1csc(C2CCN(CCO)CC2)c1)N1CCC[C@@H]2CCCC[C@@H]21 (racemic) [CC-088, cis-1-(2-Hydroxy-ethyl)-4-[4-(octahydro-quinoline-1-carbonyl)-thiophen-2-yl]-piperidinium formate] | 1 to 30
20 | Cn1cc(CN2CCC(c3cc(C(=O)N4CCC[C@@H]5CCCC[C@@H]54)cs3)CC2)cn1 (racemic) [CC-152, cis-1-(1-Methyl-1H-pyrazol-4-ylmethyl)-4-[4-(octahydro-quinoline-1-carbonyl)-thiophen-2-yl]-piperidinium formate] | 1 to 30
21 | O=C(c1csc(C2CCNCC2)c1)N1CCC[C@@H]2CCCC[C@H]21 (relative stereo) [CC-034, trans-(Octahydro-quinolin-1-yl)-(5-piperidin-4-yl-thiophen-3-yl)-methanone] | 1 to 30
22 | CN1CCC(c2cc(C(=O)N3CCC[C@@H]4CCCC[C@@H]43)cs2)CC1 (relative stereo) [CC-038, cis-[5-(1-Methyl-piperidin-4-yl)-thiophen-3-yl]-(octahydro-quinolin-1-yl)-methanone] | 1 to 30
23 | O=C1CNCCN1c1cc(C(=O)N2CCC[C@@H]3CCCC[C@@H]32)cs1 (relative stereo) [CC-048, cis-1-[4-(Octahydro-quinoline-1-carbonyl)-thiophen-2-yl]-piperazin-2-one] | 1 to 30
24 | CNCC(=O)N1CCC(c2cc(C(=O)N3CCC[C@@H]4CCCC[C@@H]43)cs2)CC1 (relative stereo) [CC-055, cis-2-Methylamino-1-{4-[4-(octahydro-quinoline-1-carbonyl)-thiophen-2-yl]-piperidin-1-yl}-ethanone] | 1 to 30
25 | O=C(CCN1CCCCC1)N1CCC(c2cc(C(=O)N3CCC[C@@H]4CCCC[C@@H]43)cs2)CC1 (relative stereo) [CC-061, cis-1-{4-[4-(Octahydro-quinoline-1-carbonyl)-thiophen-2-yl]-piperidin-1-yl}-3-piperidin-1-yl-propan-1-one] | 1 to 30
26 | O=C(c1csc(C2CCN(c3ncccn3)CC2)c1)N1CCC[C@@H]2CCCC[C@@H]21 (relative stereo) [CC-121, cis-(Octahydro-quinolin-1-yl)-[5-(1-pyrimidin-2-yl-piperidin-4-yl)-thiophen-3-yl]-methanone] | 1 to 30
27 | O=C(c1csc(C2CCN(CC(F)(F)F)CC2)c1)N1CCC[C@@H]2CCCC[C@@H]21 (relative stereo) [CC-172, cis-(Octahydro-quinolin-1-yl)-{5-[1-(2,2,2-trifluoro-ethyl)-piperidin-4-yl]-thiophen-3-yl}-methanone] | 1 to 30
28 | O=C(c1csc(C2CCNCC2)c1)N1CCC[C@@H]2CCCC[C@@H]21 (single isomer, unassigned) [CC-039, cis-(octahydro-quinolin-1-yl)-(5-piperidin-4-yl-thiophen-3-yl)-methanone] | 1 to 30
